The text below walks through data of US9221765B2, “Inhibition and dispersion of bacterial biofilms with benzimidazole derivatives” (North Carolina State University, priority 2009, dated 2015).

Experiment [1] concerns E. faecium, MRSA and S. epidermidis. As to the kind of experiment: Mitigating effects of zinc on biofilm formation inhibition. It counts as cell-based. The settings on record: for effect of Zn(II) on ability to inhibit biofilm development: 50.0 μM compound, 25.0-200.0 μM ZnCl2, dose-dependent, hydrochloride. From the text: Next, Zn(II) homeostasis was examined. Zn(II) has been implicated in the pathogenesis of Gram-positive bacterial infections and may be an important regulator of biofilm formation (Conrady, D. G.; Brescia, C. C.; Horii, K.; Weiss, A. A.; Hassett, D. J.; Herr, A. B. Proceedings of the National Academy of Sciences of the United States of America 2008, 105, 19456-19461).
Procedure to Determine the Mitigating Effects of Zinc on E. faecium, MRSA and S. epidermidis Biofilm Formation Inhibition Induced by 2-(2-Amino-1H-Benzo[d]Imidazol-6-Ylcarbamoyl)-3,4,5,6-Tetrachlorobenzoic Acid Hydrochloride:
Inhibition assays were performed by taking an overnight culture of bacterial strain and subculturing it at an OD600 of 0.01 into the necessary media (brain heart infusion for E. faecium, tryptic soy broth with a 0.5% glucose supplement (TSBG) for MRSA, Luria-Bertani (LB) media for MDRAB, Luria-Bertani media without NaCl (LBNS) for PAO1 and tryptic soy broth with a 0.5% glucose supplement and a 3.0% NaCl supplement (TGN) for S. epidermidis. Stock solutions of 50.0 μM 2-(2-amino-1H-benzo[d]imidazol-6-ylcarbamoyl)-3,4,5,6-tetrachlorobenzoic acid hydrochloride were then made in the necessary media. Samples were then doped with 25.0, 50.0, 75.0, 100.0, 150.0 and 200.0 μM ZnCl2 with controls in which no test compound was added to examine effects of 200.0 μM ZnCl2 on biofilm formation. These stock solutions were aliquoted (100 μL) into the wells of the 96-well PVC microtiter plate. Sample plates were then wrapped in GLAD Press n′ Seal® followed by an incubation under stationary conditions for 24 h at 37° C. After incubation, the media was discarded from the wells and the plates were washed thoroughly with water. Plates were then stained with 100 μL of 0.1% solution of crystal violet (CV) and then incubated at ambient temperature for 30 min. Plates were washed with water again and the remaining stain was solubilized with 200 μL of 95% ethanol. A sample of 125 μL of solubilized CV stain from each well was transferred to the corresponding wells of a polystyrene microtiter dish. Biofilm inhibition was quantitated by measuring the OD540 of each well in which a negative control lane wherein no biofilm was formed served as a background and was subtracted out.

Experiment [2] concerns MRSA. As to the kind of experiment: Dispersion of preformed MRSA biofilm. The settings on record: concentration that disperses 50% of a pre-formed biofilm. The experiment is classed as cell-based, Staphylococcus aureus. As to the method:
(§1) A dose-response study was then initiated in which both the IC50 and EC50 value of each compound towards the bacterial strains were determined (Table 1). Here, IC50 is defined as the concentration of compound that inhibits 50% biofilm development while EC50 is defined as the concentration of compound that disperses 50% of a pre-formed biofilm.
(§2) Procedure to Determine the Dispersal Effect of Test Compounds on E. faecium, MRSA and S. epidermidis Preformed Biofilms:
(§3) Dispersion assays were performed by taking an overnight culture of bacterial strain and subculturing it at an OD600 of 0.01 into the necessary media (brain heart infusion for E. faecium, tryptic soy broth with a 0.5% glucose supplement (TSBG) for MRSA and tryptic soy broth with a 0.5% glucose supplement and a 3.0% NaCl supplement (TGN) for S. epidermidis. The resulting bacterial suspension was aliquoted (100 μL) into the wells of a 96-well PVC microtiter plate. Plates were then wrapped in GLAD Press n′ Seal® followed by an incubation under stationary conditions at ambient temperature to establish the biofilms. After 24 h, the media was discarded from the wells and the plates were washed thoroughly with water. Stock solutions of predetermined concentrations of the test compound were then made in the necessary media. These stock solutions were aliquoted (100 μL) into the wells of the 96-well PVC microtiter plate with the established biofilms. Media alone was added to a subset of the wells to serve as a control. Sample Plates were then incubated for 24 h at 37° C. After incubation, the media was discarded from the wells and the plates were washed thoroughly with water. Plates were then stained with 100 μL of 0.1% solution of crystal violet (CV) and then incubated at ambient temperature for 30 min. Plates were washed with water again and the remaining stain was solubilized with 200 μL of 95% ethanol. A sample of 125 μL of solubilized CV stain from each well was transferred to the corresponding wells of a polystyrene microtiter dish. Biofilm dispersion was quantitated by measuring the OD540 of each well in which a negative control lane wherein no biofilm was formed served as a background and was subtracted out.

The subject of experiment [3] is vancomycin-resistant Enterococcus faecium (VRE). The experiment in a line: Dispersion of preformed VRE (E. faecium) biofilm. It counts as cell-based. The note with it: concentration that disperses 50% of a pre-formed biofilm. As to the method: as §1, §2, §3
A short description of experiment [4]: 1H NMR binding control experiment with FeSO4. The settings on record: 0, 0.5, or 1.0 equivalents FeSO4. As to the method:
(§4) Given this Zn(II)-dependence, the ability of 3 to bind zinc directly was determined to ascertain if the mechanism was potentially occurring via a Zn(II)-binding mechanism. To answer this question, an ^1H NMR binding experiment was performed in which the chemical shifts of 3 were measured in the presence of 0 equivalents, 0.5 equivalents, and 1.0 equivalents ZnCl2. […] As a control, the same experiment was performed with FeSO4.

A short description of experiment [5]: Divalent zinc binding via 1H NMR spectroscopy. The note with it: 0, 0.5, 1.0 equivalents ZnCl2; DMSO. As to the method:
as §4
Procedure to Determine the Divalent Zinc Binding Effects of Test Compounds via ^1H NMR Spectroscopy:
^1H NMR Spectra were obtained of the test compounds in DMSO on a 400 MHz NMR in the absence and in the presence of one equivalent of ZnCl2. 2-(2-amino-1H-benzo[d]imidazol-5-ylcarbamoyl)-3,4,5,6-tetrachlorobenzoic acid hydrochloride was tested at a 228 mM. 2,3,4,5-tetrachloro-6-(phenylcarbamoyl)benzoic acid was tested at 275 mM. 1H-benzo[d]imidazol-2-amine hydrochloride was tested at 649 mM.

Structures can show the parent of a compound that is named as a salt.

Usually EC50 stands for the concentration at which the effect is half-maximal. A high value points to weaker potency. Turning to `Nc1nc2ccc(NC(=O)c3c(Cl)c(Cl)c(Cl)c(Cl)c3C(=O)O)cc2[nH]1` [Compound 3, 2-(2-amino-1H-benzo[d]imidazol-6-ylcarbamoyl)-3,4,5,6-tetrachlorobenzoic acid hydrochloride], the “effect of Zn(II) on ability to inhibit biofilm development” value in experiment [1] is “suppressed the ability of 3 to inhibit biofilm development”; in experiment [1] (listed as 2-(2-amino-1H-benzo[d]imidazol-6-ylcarbamoyl)-3,4,5,6-tetrachlorobenzoic acid hy), “mitigate the biofilm inhibition response”. In addition, the “biofilm formation inhibition when supplemented with ZnCl2” value in experiment [1] (200 μM ZnCl2) was “unable to inhibit biofilm formation”. Further, the EC50 in experiment [2] (Staphylococcus aureus) was 2.92 µM; in experiment [2] (hydrochloride) it was 2.9 µM; in experiment [3], 74.8 µM; in experiment [3] (hydrochloride), 75 µM. The “change in NMR signal with FeSO4” value in experiment [4] is given as “No change”. The “zinc binding, change of 1H NMR signals” value in experiment [5] is “directly binding ZnCl2”.
